Drawing on ChEMBL document CHEMBL1140726, “Discovery and biological evaluation of 5-aryl-2-furfuramides, potent and selective blockers of the Nav1.8 sodium channel with efficacy in models of neuropathic and inflammatory pain” (J Med Chem, 2008), this text covers IC50, inhibition and solubility for twelve molecules.

Molecules are shown by their SMILES.

Series [1] addresses Sodium channel protein type 10 subunit alpha (Mus musculus, UniProt Q6QIY3). The series can be described thus: Inhibition of mouse recombinant Nav 1.8 channel expressed in HEK293 cells by isotopic efflux assay. The class given is cell-based.
Series [2] deals with T1, Sodium channel protein type 10 subunit alpha (Homo sapiens, UniProt Q9Y5Y9). The series is described as follows: Activity at human recombinant Nav 1.8 channel expressed in HEK293 cells in resting state with prepulse voltage of -100 mV assessed as blockade of TTx-resistant sodium current at 1 uM. Type of series: cell-based.
A short description of series [3]: Activity at rat dorsal root ganglion in resting state with prepulse voltage of -100 mV assessed as blockade of TTx-resistant sodium current at 1 uM by whole-cell patch clamp technique. The class given is functional. In general terms: Patch clamp records ionic current or voltage across a cell membrane.
The target of series [4] is T1, Sodium channel protein type 10 subunit alpha. The series is described as follows: Activity at human recombinant Nav 1.8 channel expressed in HEK293 cells in inactivated state with prepulse voltage of -40 mV assessed as blockade of TTx-resistant sodium current at 1 uM. The class given is cell-based.
The target is the same in series [5]. The series can be described thus: Inhibition of human recombinant Nav 1.8 channel expressed in HEK293 cells at 3 uM. The class given is cell-based.
A short description of series [6]: Activity at rat dorsal root ganglion in inactivated state with prepulse voltage of -40 mV assessed as blockade of TTx-resistant sodium current at 1 uM by whole-cell patch clamp technique. The class given is functional.
Series [7] in a line: Activity at rat dorsal root ganglion in resting state with prepulse voltage of -100 mV assessed as blockade of TTx-resistant sodium current at 10 uM by whole-cell patch clamp technique. The class given is functional.
The target of series [8] is T2, Nav1.5 (sodium channel protein type 5 subunit alpha) (Homo sapiens, UniProt Q14524). The series can be described thus: Inhibition of human Nav1.5 channel at 1 uM. Conditions: human.
For series [9], the target named is Sodium channel protein type 3 subunit alpha (Homo sapiens) (UniProt Q9NY46). The series can be described thus: Inhibition of human Nav1.3 channel at 1 uM.
Sequence of Sodium channel protein type 3 subunit alpha (Homo sapiens) (Q9NY46 whole entry, looked up): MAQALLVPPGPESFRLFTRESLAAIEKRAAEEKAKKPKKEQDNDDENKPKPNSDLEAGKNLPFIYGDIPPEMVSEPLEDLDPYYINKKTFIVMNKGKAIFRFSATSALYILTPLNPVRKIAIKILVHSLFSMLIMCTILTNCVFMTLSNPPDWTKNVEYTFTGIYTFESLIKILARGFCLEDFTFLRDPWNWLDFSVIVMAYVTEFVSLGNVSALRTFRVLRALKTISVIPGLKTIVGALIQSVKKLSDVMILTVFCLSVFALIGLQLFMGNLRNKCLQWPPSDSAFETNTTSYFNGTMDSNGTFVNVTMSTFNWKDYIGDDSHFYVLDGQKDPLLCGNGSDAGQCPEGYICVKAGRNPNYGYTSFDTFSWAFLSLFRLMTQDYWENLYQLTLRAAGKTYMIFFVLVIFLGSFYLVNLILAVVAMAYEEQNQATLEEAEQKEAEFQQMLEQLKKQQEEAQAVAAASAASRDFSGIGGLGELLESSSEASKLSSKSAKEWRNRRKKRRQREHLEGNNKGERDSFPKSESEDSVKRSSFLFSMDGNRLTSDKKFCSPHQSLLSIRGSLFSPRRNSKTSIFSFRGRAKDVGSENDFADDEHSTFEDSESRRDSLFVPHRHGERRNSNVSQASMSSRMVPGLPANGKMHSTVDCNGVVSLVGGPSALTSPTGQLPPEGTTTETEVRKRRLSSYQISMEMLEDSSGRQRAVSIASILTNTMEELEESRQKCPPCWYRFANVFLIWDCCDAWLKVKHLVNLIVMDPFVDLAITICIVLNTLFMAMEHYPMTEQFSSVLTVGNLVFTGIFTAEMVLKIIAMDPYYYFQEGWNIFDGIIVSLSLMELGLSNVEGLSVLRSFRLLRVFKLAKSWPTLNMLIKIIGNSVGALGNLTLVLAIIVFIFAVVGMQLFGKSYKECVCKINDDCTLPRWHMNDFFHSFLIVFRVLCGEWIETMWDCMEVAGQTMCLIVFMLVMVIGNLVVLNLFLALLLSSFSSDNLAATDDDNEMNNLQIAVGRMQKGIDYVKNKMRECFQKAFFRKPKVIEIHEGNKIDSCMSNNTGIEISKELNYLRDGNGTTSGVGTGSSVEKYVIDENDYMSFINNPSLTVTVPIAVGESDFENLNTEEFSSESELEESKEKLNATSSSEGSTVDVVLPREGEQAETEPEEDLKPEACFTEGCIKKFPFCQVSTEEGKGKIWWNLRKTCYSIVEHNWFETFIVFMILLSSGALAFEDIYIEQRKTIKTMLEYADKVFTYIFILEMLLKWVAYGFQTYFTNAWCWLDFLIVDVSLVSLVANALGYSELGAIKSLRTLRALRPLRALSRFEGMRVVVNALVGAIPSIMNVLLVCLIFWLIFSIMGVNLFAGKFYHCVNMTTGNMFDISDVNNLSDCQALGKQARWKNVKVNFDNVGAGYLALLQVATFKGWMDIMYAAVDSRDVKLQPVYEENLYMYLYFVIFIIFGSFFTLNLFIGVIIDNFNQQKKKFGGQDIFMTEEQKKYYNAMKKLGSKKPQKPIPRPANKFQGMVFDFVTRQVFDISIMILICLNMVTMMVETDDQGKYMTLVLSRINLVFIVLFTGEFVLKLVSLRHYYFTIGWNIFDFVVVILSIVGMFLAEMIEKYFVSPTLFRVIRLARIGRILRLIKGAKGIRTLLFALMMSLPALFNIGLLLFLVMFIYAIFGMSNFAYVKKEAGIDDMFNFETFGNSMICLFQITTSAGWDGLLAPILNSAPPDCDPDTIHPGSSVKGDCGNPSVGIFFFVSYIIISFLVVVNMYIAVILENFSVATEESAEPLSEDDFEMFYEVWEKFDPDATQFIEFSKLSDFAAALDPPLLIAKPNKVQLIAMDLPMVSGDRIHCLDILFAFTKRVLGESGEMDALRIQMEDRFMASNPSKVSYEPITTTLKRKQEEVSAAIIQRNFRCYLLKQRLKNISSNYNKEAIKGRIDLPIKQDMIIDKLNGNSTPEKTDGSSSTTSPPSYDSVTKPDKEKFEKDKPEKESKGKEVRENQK
Series [10] concerns the target T1, Sodium channel protein type 10 subunit alpha. The series can be described thus: Activity at human recombinant Nav 1.8 channel expressed in HEK293 cells in resting state with prepulse voltage of -100 mV assessed as blockade of TTx-resistant sodium current at 3 uM. Type of series: cell-based.
Series [11] concerns the target Voltage-gated inwardly rectifying potassium channel KCNH2 (Homo sapiens, UniProt Q12809). The series can be described thus: Inhibition of hERG potassium channel expressed in CHO cells by isotope efflux assay.
Series [12] in a line: Activity at rat dorsal root ganglion in inactivated state with prepulse voltage of -40 mV assessed as blockade of TTx-resistant sodium current at 10 uM by whole-cell patch clamp technique. Type of series: functional.
Series [13] addresses T1, Sodium channel protein type 10 subunit alpha. The series can be described thus: Inhibition of human recombinant Nav 1.8 channel expressed in HEK293 cells at 1 uM. The class given is cell-based.
Series [14] concerns the target Sodium channel protein type 2 subunit alpha (Homo sapiens) (UniProt Q99250). The series is described as follows: Inhibition of human Nav1.2 channel at 1 uM.
The target of series [15] is T1, Sodium channel protein type 10 subunit alpha. The series can be described thus: Activity at human recombinant Nav 1.8 channel expressed in HEK293 cells in inactivated state with prepulse voltage of -40 mV assessed as blockade of TTx-resistant sodium current at 3 uM. The class given is cell-based.
Series [16] has as its target Sodium channel protein type 9 subunit alpha (Homo sapiens) (UniProt Q15858). The series can be described thus: Inhibition of human Nav1.7 channel at 3 uM.
Series [17] deals with T1, Sodium channel protein type 10 subunit alpha. The series can be described thus: Activity at human recombinant Nav 1.8 channel expressed in HEK293 cells in inactivated state with prepulse voltage of -40 mV assessed as blockade of TTx-resistant sodium current at 0.03 uM. The class given is cell-based.
For series [18] the target is unchanged. The series is described as follows: Activity at human recombinant Nav 1.8 channel expressed in HEK293 cells in inactivated state with prepulse voltage of -40 mV assessed as blockade of TTx-resistant sodium current at 0.1 uM. Type of series: cell-based.
Series [19] can be described thus: Aqueous solubility of the compound. The class given is physicochemical.
Series [20] has as its target Sodium channel protein type 3 subunit alpha (Homo sapiens) (UniProt Q9NY46). The series can be described thus: Inhibition of human Nav1.3 channel at 3 uM.
The target of series [21] is Sodium channel protein type 2 subunit alpha (Homo sapiens) (UniProt Q99250). The series is described as follows: Inhibition of human Nav1.2 channel at 3 uM.
Series [22] is described as follows: Activity at rat dorsal root ganglion in resting state with prepulse voltage of -100 mV assessed as blockade of TTx-resistant sodium current at 0.1 uM by whole-cell patch clamp technique. Type of series: functional.
The target in series [23] is T1, Sodium channel protein type 10 subunit alpha. The series can be described thus: Inhibition of human recombinant Nav 1.8 channel expressed in HEK293 cells at 0.1 uM. The class given is cell-based.
The target is the same in series [24]. The series is described as follows: Activity at human recombinant Nav 1.8 channel expressed in HEK293 cells in resting state with prepulse voltage of -100 mV assessed as blockade of TTx-resistant sodium current at 0.03 uM. The class given is cell-based.
Series [25] in a line: Activity at rat dorsal root ganglion in inactivated state with prepulse voltage of -40 mV assessed as blockade of TTx-resistant sodium current at 0.1 uM by whole-cell patch clamp technique. Type of series: functional.
The target of series [26] is T1, Sodium channel protein type 10 subunit alpha. The series can be described thus: Activity at human recombinant Nav 1.8 channel expressed in HEK293 cells in resting state with prepulse voltage of -100 mV assessed as blockade of TTx-resistant sodium current at 0.1 uM. The class given is cell-based.
Series [27] is described as follows: Activity at rat dorsal root ganglion in inactivated state with prepulse voltage of -40 mV assessed as blockade of TTx-resistant sodium current at 0.3 uM by whole-cell patch clamp technique. Type of series: functional.
Series [28] in a line: Activity at rat dorsal root ganglion in resting state with prepulse voltage of -100 mV assessed as blockade of TTx-resistant sodium current at 0.3 uM by whole-cell patch clamp technique. Type of series: functional.
Series [29] deals with T1, Sodium channel protein type 10 subunit alpha. The series is described as follows: Inhibition of human recombinant Nav 1.8 channel expressed in HEK293 cells at 0.03 uM. Type of series: cell-based.
The target of series [30] is T2, Nav1.5 (sodium channel protein type 5 subunit alpha). The series can be described thus: Inhibition of human Nav1.5 channel at 3 uM.

Sequence of Sodium channel protein type 10 subunit alpha (Mus musculus, UniProt Q6QIY3) (Q6QIY3 whole entry): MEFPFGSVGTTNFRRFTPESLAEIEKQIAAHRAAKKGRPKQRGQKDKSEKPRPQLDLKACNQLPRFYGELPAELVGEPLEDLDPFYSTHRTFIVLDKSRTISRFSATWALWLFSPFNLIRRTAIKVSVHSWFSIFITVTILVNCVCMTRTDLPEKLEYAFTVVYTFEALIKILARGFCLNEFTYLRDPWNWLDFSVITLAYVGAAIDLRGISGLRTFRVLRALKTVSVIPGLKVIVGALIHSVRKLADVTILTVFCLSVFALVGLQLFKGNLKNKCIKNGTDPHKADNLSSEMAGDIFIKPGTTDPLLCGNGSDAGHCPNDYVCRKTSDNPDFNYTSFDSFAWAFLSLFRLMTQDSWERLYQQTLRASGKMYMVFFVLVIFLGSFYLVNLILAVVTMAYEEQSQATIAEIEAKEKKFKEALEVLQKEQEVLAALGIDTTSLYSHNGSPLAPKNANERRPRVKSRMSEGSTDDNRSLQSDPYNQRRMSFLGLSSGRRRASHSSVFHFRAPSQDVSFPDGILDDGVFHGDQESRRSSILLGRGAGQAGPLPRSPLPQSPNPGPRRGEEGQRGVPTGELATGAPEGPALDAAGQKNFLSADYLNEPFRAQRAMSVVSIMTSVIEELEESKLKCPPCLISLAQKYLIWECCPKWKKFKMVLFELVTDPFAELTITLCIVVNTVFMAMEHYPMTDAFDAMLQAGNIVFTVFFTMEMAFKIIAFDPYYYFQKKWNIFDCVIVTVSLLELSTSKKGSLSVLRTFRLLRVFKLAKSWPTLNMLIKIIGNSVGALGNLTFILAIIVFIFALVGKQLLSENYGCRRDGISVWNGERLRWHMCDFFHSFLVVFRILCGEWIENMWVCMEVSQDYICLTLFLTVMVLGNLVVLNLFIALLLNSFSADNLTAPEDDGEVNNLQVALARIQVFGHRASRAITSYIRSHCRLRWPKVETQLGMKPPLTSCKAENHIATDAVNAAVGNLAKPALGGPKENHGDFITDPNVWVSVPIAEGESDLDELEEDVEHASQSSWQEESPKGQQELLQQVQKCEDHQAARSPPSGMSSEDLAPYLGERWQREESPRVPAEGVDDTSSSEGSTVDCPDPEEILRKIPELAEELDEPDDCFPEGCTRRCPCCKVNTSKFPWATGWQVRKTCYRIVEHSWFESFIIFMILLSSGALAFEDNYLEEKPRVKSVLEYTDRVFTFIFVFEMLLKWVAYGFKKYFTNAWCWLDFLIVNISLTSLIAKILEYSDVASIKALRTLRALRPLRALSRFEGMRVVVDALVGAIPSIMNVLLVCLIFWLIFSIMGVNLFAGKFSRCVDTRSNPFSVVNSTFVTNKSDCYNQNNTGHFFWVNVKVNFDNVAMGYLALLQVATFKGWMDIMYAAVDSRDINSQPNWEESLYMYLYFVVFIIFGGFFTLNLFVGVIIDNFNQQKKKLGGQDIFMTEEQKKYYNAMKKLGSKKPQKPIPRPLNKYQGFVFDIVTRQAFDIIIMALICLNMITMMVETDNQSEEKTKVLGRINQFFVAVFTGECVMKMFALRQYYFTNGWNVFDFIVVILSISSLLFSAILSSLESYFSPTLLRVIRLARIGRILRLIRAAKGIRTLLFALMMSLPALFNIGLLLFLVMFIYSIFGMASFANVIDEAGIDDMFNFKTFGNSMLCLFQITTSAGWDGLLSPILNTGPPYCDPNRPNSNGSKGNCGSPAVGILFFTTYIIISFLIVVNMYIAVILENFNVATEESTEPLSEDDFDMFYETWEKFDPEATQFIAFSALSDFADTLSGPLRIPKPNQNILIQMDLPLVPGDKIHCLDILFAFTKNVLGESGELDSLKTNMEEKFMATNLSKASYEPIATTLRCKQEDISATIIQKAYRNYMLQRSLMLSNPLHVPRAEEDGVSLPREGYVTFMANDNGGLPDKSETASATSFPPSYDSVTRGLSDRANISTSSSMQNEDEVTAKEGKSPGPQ
Sequence of Voltage-gated inwardly rectifying potassium channel KCNH2 (Q12809 whole entry): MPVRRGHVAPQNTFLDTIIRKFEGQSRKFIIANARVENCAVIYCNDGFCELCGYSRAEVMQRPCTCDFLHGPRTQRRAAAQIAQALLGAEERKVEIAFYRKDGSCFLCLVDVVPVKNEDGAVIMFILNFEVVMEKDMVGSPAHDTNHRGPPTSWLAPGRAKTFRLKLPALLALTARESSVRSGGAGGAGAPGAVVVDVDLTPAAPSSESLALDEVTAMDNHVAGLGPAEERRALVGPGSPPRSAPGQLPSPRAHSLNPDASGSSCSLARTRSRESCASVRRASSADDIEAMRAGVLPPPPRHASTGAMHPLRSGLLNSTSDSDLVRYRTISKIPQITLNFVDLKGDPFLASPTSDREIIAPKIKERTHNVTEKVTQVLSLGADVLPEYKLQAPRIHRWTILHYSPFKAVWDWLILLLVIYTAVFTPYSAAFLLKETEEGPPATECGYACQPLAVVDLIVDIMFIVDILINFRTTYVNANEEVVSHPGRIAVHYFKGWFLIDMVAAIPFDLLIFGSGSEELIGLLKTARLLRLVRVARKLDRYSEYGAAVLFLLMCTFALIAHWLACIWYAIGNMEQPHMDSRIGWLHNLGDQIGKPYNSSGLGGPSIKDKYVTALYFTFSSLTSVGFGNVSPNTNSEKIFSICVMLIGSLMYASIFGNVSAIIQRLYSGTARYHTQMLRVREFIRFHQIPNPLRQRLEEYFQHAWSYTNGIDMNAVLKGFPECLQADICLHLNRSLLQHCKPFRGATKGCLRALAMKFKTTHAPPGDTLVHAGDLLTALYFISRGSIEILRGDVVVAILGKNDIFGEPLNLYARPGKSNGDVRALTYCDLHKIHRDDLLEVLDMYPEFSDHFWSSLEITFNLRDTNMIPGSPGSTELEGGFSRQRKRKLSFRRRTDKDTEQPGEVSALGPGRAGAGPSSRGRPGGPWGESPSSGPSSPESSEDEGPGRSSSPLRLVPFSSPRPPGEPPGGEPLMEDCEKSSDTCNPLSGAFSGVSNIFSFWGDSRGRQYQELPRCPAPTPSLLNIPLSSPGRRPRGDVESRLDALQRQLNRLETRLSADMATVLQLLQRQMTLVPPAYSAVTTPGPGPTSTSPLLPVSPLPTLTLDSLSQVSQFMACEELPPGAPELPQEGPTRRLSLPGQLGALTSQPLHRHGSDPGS

Usually IC50 stands for the concentration that inhibits the measured activity by half. In the case of `O=C(Nc1cccc(C2=NCCO2)c1)c1ccc(-c2ccc(Cl)cc2)o1`, the IC50 in [1] was found to be 2.5 µM.
Same read-out and setting: with `O=C(Nc1ccc2ncccc2c1)c1ccc(-c2ccc(Cl)cc2)o1` the figure was 10 µM; with `O=C(Nc1cccc(N2CCOCC2)c1)c1ccc(-c2ccc(Cl)cc2)o1`, 4.6 µM; with `Cc1cccc(NC(=O)c2ccc(-c3cccc(C(F)(F)F)c3)o2)c1`, 7.5 µM.
Same read-out and setting: to `N#CCc1cccc(NC(=O)c2ccc(-c3ccc(Cl)cc3)o2)c1` belongs 1.7 µM; to `CN1CCc2ccc(NC(=O)c3ccc(-c4ccc(Cl)cc4)o3)cc21`, 4.6 µM.
Turning to `Cc1ccccc1CNC(=O)c1ccc(-c2ccc(Cl)cc2)o1`, the IC50 in series [1] was 1.1 µM.
One may read the inhibition as the percentage by which the read-out fell short of the control. Regarding `Cc1ccnc(NC(=O)c2ccc(-c3ccc(Cl)cc3)o2)c1`, the inhibition was found to be 58% in series [2]; 42% in series [4]; 81% in series [5]; 5% in [9]; 83% in series [10]; 42% in series [13]. Also, the inhibition in series [14] was 12%; in [15], 81%. In addition, the figures for the inhibition at 1 µM in series [3], in series [6] and in series [8] were 9%, 36% and 24%, respectively. The inhibition at 10 µM in series [7] and in series [12] was 88% each time. Moreover, the IC50 in [11] is above 30 µM; in series [1], 0.96 µM.
In general, solubility refers to how much of the substance goes into solution per volume. Higher therefore signals much dissolved substance. For `Cc1cccc(NC(=O)c2ccc(-c3ccc(Cl)cc3)o2)c1`, the inhibition in [16] turned out to be 41%; in [17], 68%; in series [18] it was 77%; in series [20], 61%; in series [9], 17%; in [21], 54%. Besides, the inhibition amounted to 77% in series [23]; 61% in [24]; 67% in series [26]; 33% in series [14]; 68% in series [29]. Also, the solubility in series [19] was below 0.1 µg/mL. Moreover, the IC50 came to 27 µM in series [11] and 0.48 µM in series [1]. Moreover, the inhibition at 0.1 µM stood at 3% in [22] and 37% in [25]. Further, the inhibition at 0.3 µM in series [27] was found to be 60%; in [28], 18%. In series [30], this molecule returned an inhibition at 3 µM of 51%.
On to `CN1CCOc2cc(NC(=O)c3ccc(-c4ccc(Cl)cc4)o3)ccc21`, for which the IC50 in [1] stood at 0.97 µM.
Same read-out and setting: with `Cc1cccc(NC(=O)c2ccc(-c3ccc(S(C)(=O)=O)cc3)o2)c1` the figure was above 30 µM.
On the same count and under the same terms, with `Cc1cccc(NC(=O)c2cc(-c3ccc(Cl)cc3)co2)c1` the figure was 5.3 µM.
